These results are taken from article PMC7956560, “New 3-Aryl-2-(2-thienyl)acrylonitriles with High Activity Against Hepatoma Cells” (International Journal of Molecular Sciences, 2021).

For one series, the system named is HepG2 cells. Nature of the series: LDH release assay (unspecific cytotoxicity). In kind it is cell-based, human. As to conditions: HepG2, 0.5 and 10 µM, 12 or 24 h. The procedure:
Unspecific cytotoxicity induced by treatment with 0.5 µM and 10 µM of 1a, 1b, 1c and sorafenib (LC Laboratories, Woburn, MA, USA) was determined by measuring the release of lactate dehydrogenase (LDH) from HepG2 cells into the supernatant after 12 and 24 h (Cytotoxicity Detection KitPLUS LDH, Roche Diagnostics GmbH, Mannheim, Germany). The supernatant of treated samples was collected, and adherent non-treated cells were lysed with 2% Triton X-100 for 10 min to determine the maximum LDH release. All samples were mixed with catalyst and dye solution for 30 min, resulting in the formation of formazan dye proportional to LDH enzyme activity. The absorbance was measured at 490/630 nm using an ELISA reader (Dynex Technologies, Denkendorf, Germany) and cytotoxicity was determined by subtracting the percentage of LDH release under control conditions of those from treated samples. Experiments were performed in duplicate and data are given as mean percentage changes ± SD as compared to controls of n = 3 experiments.

The target in a further series is T1, Pim-1 (Homo sapiens, UniProt P11309).
T1 construct: purchased Eurofins KinaseProfiler service (Eurofins, France)
T1 sequence (P11309 whole entry): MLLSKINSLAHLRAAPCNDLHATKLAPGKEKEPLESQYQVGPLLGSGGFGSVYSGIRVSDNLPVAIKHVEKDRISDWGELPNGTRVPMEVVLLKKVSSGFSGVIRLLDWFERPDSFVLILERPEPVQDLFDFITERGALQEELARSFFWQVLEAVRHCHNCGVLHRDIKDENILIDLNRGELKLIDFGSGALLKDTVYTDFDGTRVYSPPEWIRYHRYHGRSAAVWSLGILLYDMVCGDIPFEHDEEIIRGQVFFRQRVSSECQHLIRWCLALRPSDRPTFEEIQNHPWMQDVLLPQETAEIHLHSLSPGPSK
Nature of the series: Enzymatic kinase assay (Eurofins KinaseProfiler). As to conditions: 10 µM compound, cell-free. In kind it is biochemical. The procedure:
(§1) The kinase inhibiting potency of compound 1a, 1b and 1c (10 µM) was screened in a cell-free kinase assay, which consisted of a custom panel of 43 human protein kinases for 1c (listed in Figure 5A), as well as a subpanel of six kinases for 1a and 1b (Figure 5B). The initial panel was chosen to screen the lead compound 1c based on the union of two strategies. A total of 29 kinases were selected based on the correlated results of three in silico target prediction methods including structure- as well as ligand-based techniques and 20 kinases because of their relevance for HCC (note that six kinases were part of both strategies).
(§2) The assay was performed by Eurofins KinaseProfilerTM service (Eurofins, France) and the determination of enzymatic activity was assessed as previously described. Additionally, an IC50 determination of compound 1c against the VEGFR-2 was performed with a concentration range of 0.003 to 30 µM.

A further series concerns the target T2, VEGFR-2 (KDR) (Homo sapiens, UniProt P35968).
T2 construct: purchased Eurofins KinaseProfiler service (Eurofins, France)
Nature of the series: Enzymatic kinase assay (Eurofins KinaseProfiler). It counts as biochemical. The procedure:
as §1, §2

For another series, the target named is T3, c-KIT (Homo sapiens, UniProt P10721).
T3 construct: purchased Eurofins KinaseProfiler service (Eurofins, France)
T3 sequence (P10721 26-976): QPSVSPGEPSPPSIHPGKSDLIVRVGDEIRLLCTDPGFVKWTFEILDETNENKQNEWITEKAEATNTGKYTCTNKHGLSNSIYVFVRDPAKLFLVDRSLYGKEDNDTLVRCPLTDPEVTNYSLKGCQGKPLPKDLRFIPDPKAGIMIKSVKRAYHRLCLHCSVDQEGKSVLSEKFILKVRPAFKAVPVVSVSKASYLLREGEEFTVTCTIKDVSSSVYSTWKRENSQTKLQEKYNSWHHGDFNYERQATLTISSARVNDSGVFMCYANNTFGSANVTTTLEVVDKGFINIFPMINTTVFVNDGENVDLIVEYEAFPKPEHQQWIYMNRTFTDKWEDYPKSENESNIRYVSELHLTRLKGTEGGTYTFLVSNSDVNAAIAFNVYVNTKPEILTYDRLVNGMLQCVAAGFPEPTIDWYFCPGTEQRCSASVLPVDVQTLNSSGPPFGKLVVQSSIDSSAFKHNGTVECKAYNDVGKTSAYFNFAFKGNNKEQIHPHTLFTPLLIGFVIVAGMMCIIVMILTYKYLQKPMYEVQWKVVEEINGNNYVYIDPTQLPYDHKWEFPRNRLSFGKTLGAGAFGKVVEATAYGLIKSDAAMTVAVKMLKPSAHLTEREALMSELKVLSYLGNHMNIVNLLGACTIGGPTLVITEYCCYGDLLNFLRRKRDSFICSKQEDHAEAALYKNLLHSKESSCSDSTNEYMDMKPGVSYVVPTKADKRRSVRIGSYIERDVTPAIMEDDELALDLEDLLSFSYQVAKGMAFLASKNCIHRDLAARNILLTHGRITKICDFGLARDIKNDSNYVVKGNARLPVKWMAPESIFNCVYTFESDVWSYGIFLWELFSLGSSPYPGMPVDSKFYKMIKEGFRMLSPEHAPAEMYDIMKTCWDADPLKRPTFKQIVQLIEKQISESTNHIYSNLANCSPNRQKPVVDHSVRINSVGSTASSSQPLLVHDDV
Nature of the series: Enzymatic kinase assay (Eurofins KinaseProfiler). In kind it is biochemical. As to conditions: 10 µM compound, cell-free. The procedure: as §1, §2

The next series deals with FGFR. Nature of the series: Enzymatic kinase assay (Eurofins KinaseProfiler). It counts as biochemical, human. As to conditions: 10 µM compound, cell-free. The procedure:
as §1, §2

The test system of another series is PDGFR. Nature of the series: Enzymatic kinase assay (Eurofins KinaseProfiler). In kind it is biochemical, human. As to conditions: 10 µM compound, cell-free. The procedure: as §1, §2
The test system of series [1] is panel of 43 human protein kinases. Nature of the series: Enzymatic kinase panel screening. In kind it is biochemical. As to conditions: 10 µM compound. The procedure:
as §1, §2

T2 sequence (P35968 20-1356): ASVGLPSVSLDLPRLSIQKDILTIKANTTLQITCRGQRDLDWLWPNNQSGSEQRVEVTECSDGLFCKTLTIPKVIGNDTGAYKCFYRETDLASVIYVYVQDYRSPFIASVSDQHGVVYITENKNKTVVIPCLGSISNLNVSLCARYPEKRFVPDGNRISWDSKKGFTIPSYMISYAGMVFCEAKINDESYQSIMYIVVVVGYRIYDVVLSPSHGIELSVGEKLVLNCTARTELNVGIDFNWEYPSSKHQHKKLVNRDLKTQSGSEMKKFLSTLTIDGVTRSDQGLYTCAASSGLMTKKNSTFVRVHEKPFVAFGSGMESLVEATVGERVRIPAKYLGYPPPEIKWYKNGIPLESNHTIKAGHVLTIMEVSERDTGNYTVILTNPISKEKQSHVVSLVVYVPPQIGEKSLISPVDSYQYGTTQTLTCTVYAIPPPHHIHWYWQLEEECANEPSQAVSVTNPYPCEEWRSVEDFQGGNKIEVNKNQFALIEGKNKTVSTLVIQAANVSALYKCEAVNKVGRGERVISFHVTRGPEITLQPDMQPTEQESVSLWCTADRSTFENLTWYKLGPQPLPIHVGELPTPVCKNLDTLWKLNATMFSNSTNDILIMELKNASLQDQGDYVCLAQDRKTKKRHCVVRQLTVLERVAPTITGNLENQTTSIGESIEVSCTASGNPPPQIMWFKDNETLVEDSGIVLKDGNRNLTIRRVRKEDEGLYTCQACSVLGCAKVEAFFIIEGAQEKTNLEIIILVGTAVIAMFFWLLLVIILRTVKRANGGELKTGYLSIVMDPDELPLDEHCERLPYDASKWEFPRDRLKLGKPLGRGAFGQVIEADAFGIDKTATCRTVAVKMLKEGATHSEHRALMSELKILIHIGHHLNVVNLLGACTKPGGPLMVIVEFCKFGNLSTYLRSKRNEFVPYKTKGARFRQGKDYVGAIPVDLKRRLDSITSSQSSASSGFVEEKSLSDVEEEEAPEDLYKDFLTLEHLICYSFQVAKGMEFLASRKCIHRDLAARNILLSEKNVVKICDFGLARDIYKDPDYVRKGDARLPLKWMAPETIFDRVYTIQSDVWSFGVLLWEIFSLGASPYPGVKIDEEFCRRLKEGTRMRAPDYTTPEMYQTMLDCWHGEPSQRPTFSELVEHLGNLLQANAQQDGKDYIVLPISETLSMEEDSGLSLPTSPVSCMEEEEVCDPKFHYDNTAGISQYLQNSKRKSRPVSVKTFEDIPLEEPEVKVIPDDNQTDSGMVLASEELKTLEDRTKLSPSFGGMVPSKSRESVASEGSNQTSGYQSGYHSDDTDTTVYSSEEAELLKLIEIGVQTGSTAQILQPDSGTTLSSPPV

`COc1ccc(C=C(C#N)c2cccs2)cc1O` [Compound 1c, 2-[1-Cyano-2-(3-hydroxy-4-methoxyphenyl)-(E)-ethenyl)]-thiophene]: the “LDH release / unspecific cytotoxicity (in words)” value in the series on HepG2 cells is reported as “do not exert considerable unspecific cytotoxicity”. In addition, the inhibition at 10 µM against Pim-1 was determined as 71%; against VEGFR-2 (KDR) (10 µM compound, cell-free), 89%; against c-KIT, 61%. For the same compound, the IC50 on VEGFR-2 (KDR) (concentration range 0.003 to 30 µM, read-out: IC50 against VEGFR-2) turned out to be 3.32 µM. For the same compound, in the series with FGFR, the “inhibition of FGFR (in words)” value is on record as “no relevant inhibition”. Besides, the “inhibition of PDGFR (in words)” value in the series with PDGFR was “no relevant inhibition”. For the same compound, the “number of the 43 kinase targets inhibited by more than 50%” value in series [1] was “six”.
